Read-outs that look alike come from different tables or passages of the source.
Columns and labels:
KRAS WT = KRAS WT (Homo sapiens (Human), UniProt P01116+P62937); assay: Ras-Raf disruption/FRET/MOA assay (BRAF RBD, Cyclophilin A); type: biochemical; settings: read-out: KRAS WT FRET data IC50
Method in brief: (§1)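 First, 25 μM Cyclophilin A, 12.5 nM His6-Ras-GMPPNP and 50 nM GST-BRAF RBD are mixed with diluted compound at pH 7.3. Next, 3 h at 25° C. Then 10 nM anti-His Eu-W1024 plus 50 nM anti-GST allophycocyanin for 1.5 h before TR-FRET reading.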

KRAS G12S = KRAS G12S (Homo sapiens (Human), UniProt P01116+P62937, G12S); assay: as above; type: biochemical; settings: read-out: KRAS G12S FRET IC50
KRAS G12S, sequence (P01116 other isoform, or with tags, fused parts or gaps G12S): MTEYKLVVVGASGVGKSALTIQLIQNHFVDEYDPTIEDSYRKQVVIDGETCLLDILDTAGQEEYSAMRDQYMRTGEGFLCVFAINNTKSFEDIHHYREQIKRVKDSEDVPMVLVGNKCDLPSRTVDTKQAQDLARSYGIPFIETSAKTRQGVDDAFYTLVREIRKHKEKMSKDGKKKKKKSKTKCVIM
KRAS G12S, sequence (P62937 whole entry): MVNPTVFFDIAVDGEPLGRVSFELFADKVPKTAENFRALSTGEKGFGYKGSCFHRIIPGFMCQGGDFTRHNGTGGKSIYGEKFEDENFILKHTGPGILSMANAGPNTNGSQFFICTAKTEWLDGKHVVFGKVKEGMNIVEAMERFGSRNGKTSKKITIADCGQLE
Method in brief: as §1

KRAS G12D = KRAS G12D (Homo sapiens (Human), UniProt P01116+P62937, G12D); assay: as above; type: biochemical; settings: read-out: KRAS G12D FRET IC50
KRAS G12D, sequence (P01116 other isoform, or with tags, fused parts or gaps G12D): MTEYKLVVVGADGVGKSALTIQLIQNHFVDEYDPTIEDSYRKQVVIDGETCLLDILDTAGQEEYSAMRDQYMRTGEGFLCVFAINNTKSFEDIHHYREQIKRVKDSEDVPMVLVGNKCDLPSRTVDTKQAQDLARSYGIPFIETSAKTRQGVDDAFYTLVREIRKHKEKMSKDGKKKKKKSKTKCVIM
KRAS G12D, sequence (P62937 whole entry): as the sequence (P62937 whole entry) above
Method in brief: as §1

KRAS G13D = KRAS G13D (Homo sapiens (Human), UniProt P01116+P62937, G13D); assay: as above; type: biochemical; settings: read-out: KRAS G13D FRET data IC50
KRAS G13D, sequence (P01116 other isoform, or with tags, fused parts or gaps G13D): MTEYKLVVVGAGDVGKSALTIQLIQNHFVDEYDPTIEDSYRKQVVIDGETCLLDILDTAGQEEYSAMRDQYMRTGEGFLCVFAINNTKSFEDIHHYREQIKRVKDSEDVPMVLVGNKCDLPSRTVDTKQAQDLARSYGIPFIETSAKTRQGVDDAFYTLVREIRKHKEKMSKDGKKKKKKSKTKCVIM
KRAS G13D, sequence (P62937 whole entry): as the sequence (P62937 whole entry) above
Method in brief: as §1

KRAS G12C = KRAS G12C (Homo sapiens (Human), UniProt P01116+P62937, G12C); assay: as above; type: biochemical; settings: read-out: KRAS G12C FRET IC50
KRAS G12C, sequence (P01116-2 other isoform, or with tags, fused parts or gaps G12C): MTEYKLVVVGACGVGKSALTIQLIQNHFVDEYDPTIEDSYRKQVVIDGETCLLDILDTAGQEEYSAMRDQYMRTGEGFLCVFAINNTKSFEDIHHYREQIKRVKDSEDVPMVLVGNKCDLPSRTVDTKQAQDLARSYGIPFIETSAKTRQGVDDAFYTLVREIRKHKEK
KRAS G12C, sequence (P62937 whole entry): as the sequence (P62937 whole entry) above
Method in brief: as §1

KRAS G12V = KRAS G12V (Homo sapiens (Human), UniProt P01116+P62937, G12V); assay: as above; type: biochemical; settings: read-out: KRAS G12V FRET IC50
KRAS G12V, sequence (P01116 other isoform, or with tags, fused parts or gaps G12V): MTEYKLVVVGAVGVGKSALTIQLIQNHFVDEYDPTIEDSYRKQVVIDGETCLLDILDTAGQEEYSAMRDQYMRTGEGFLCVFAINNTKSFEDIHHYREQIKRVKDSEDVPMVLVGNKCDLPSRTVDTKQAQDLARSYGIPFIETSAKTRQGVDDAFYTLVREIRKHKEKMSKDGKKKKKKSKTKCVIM
KRAS G12V, sequence (P62937 whole entry): as the sequence (P62937 whole entry) above
Method in brief: as §1

KRAS G13C = KRAS G13C (Homo sapiens (Human), UniProt P01116+P62937, G13C); assay: as above; type: biochemical; settings: read-out: KRAS G13C FRET IC50
KRAS G13C, sequence (P01116 other isoform, or with tags, fused parts or gaps G13C): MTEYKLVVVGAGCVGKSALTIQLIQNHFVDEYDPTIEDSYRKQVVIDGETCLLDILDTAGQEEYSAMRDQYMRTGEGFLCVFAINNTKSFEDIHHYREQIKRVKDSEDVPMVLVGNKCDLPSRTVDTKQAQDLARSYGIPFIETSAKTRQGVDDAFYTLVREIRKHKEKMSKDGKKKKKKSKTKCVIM
KRAS G13C, sequence (P62937 whole entry): as the sequence (P62937 whole entry) above
Method in brief: as §1

NRAS G12C = NRAS G12C (Homo sapiens (Human), UniProt P01111+P62937, G12C); assay: as above; type: biochemical; settings: read-out: NRAS G12C FRET data IC50
NRAS G12C, sequence (P01111 whole entry G12C): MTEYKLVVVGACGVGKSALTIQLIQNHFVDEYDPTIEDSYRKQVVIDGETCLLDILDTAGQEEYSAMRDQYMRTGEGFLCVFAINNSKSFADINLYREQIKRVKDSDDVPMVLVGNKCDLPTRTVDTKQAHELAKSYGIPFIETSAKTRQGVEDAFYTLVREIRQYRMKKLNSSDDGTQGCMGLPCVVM
NRAS G12C, sequence (P62937 whole entry): as the sequence (P62937 whole entry) above
Method in brief: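 25 μM tagless Cyclophilin A, 12.5 nM His6-Ras-GMPPNP and 50 nM GST-BRAF RBD in HEPES pH 7.3 buffer with 5 mM MgCl2, with compound (10-point 3-fold series from 30 μM final) for 3 h at 25 °C. Anti-His Eu and anti-GST APC then added for 1.5 h. IC50 from TR-FRET ratio decrease versus DMSO.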

NCI-H358 (K-Ras G12C) = assay: CellTiter-Glo cell viability assay, NCI-H358; type: cell-based, human; settings: Homo sapiens, NCI-H358, 120 h
Method in brief: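 NCI-H358 (K-Ras G12C) cells treated with compound dispensed directly into plates. CellTiter-Glo luminescence read on day 5 after ~30 min equilibration to room temperature. Signal normalised to DMSO average ×100, then fitted with a four-parameter logistic model.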

[1] = 5-day treatment, read-out: H358 Cell Viability assay data (K-Ras G12C, IC50)

KRAS WT, sequence (P01116 other isoform, or with tags, fused parts or gaps): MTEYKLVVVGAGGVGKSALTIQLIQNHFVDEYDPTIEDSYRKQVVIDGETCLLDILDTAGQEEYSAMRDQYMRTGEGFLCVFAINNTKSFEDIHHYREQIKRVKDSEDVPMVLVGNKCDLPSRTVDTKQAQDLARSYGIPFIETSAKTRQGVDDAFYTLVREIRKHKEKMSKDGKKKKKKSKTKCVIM
KRAS WT, sequence (P62937 whole entry): as the sequence (P62937 whole entry) above

Compound	IC50 (KRAS WT) [µM]	IC50 (KRAS G12S) [µM]	IC50 (KRAS G12D) [µM]	IC50 (KRAS G13D) [µM]	IC50 (KRAS G12C) [µM]	IC50 (KRAS G12V) [µM]	IC50 (KRAS G13C) [µM]	IC50 (NRAS G12C) [µM]	IC50 (NCI-H358 (K-Ras G12C); [1]) [µM]	IC50 (NCI-H358 (K-Ras G12C); read-out: H358 Cell Viability assay data (K-Ras G12C, IC50, uM), 5-day treatment) [µM]
CCn1c(-c2cccnc2[C@H](C)OC)c2c3cc(ccc31)-c1csc(n1)C[C@H](NC(=O)[C@H](C(C)C)N(C)C(=O)N1CC([C@H](C)N(C)C)C1)C(=O)N1CCC[C@H](N1)C(=O)OCC(C)(C)C2 [Compound A538]	0.1 to 1	0.1 to 1	0.1 to 1	0.1 to 1	0.01 to 0.1	0.1 to 1	0.1 to 1	0.01 to 0.1	0.01 to 0.1	–
CCn1c(-c2cccnc2[C@H](C)OC)c2c3cc(ccc31)-c1csc(n1)C[C@H](NC(=O)[C@H](C(C)C)N(C)C(=O)N1CC(O)(CN(C)C)C1)C(=O)N1CCC[C@H](N1)C(=O)OCC(C)(C)C2 [Compound A597]	0.1 to 1	0.1 to 1	1 to 10	0.1 to 1	0.1 to 1	0.1 to 1	0.1 to 1	0.1 to 1	< 0.01	–
CCn1c(-c2cccnc2[C@H](C)OC)c2c3cc(ccc31)-c1csc(n1)[C@@H](OC)[C@H](NC(=O)[C@H](C(C)C)N(C)C(=O)N(C)C)C(=O)N1CCC[C@H](N1)C(=O)OCC(C)(C)C2 [Compound A598, (2S)—N-((6^3S,3S,4S,Z)-1^1-ethyl-3-methoxy-1^2-(2-((S)-1-methoxyethyl)pyridin-3-yl)-10,10-dimethyl-5,7-dioxo-6^1,6^2,6^3,6^4,6^5,6^6-hexahydro-1^1H-8-oxa-2 (4,2)-thiazola-1 (5,3)-indola-6 (1,3)-pyridazinacycloundecaphane-4-yl)-3-methyl-2-(1,3,3-trimethylureido) butanamide]	0.1 to 1	0.1 to 1	1 to 10	0.1 to 1	0.01 to 0.1	0.1 to 1	0.1 to 1	0.01 to 0.1	–	0.01 to 0.1
CCn1c(-c2cccnc2[C@H](C)OC)c2c3cc(ccc31)-c1csc(n1)C[C@H](NC(=O)[C@H](C(C)C)N(C)C(=O)N1CC3(CCN(C)C3)C1)C(=O)N1CCC[C@H](N1)C(=O)OCC(C)(C)C2 [Compound A602]	0.1 to 1	0.1 to 1	1 to 10	0.1 to 1	0.1 to 1	0.1 to 1	0.1 to 1	0.1 to 1	< 0.01	–

More lines, main results first:

IC50 (KRAS WT) [µM]	IC50 (KRAS G12S) [µM]	IC50 (KRAS G12D) [µM]	IC50 (KRAS G13D) [µM]	IC50 (KRAS G12C) [µM]	IC50 (KRAS G12V) [µM]	IC50 (KRAS G13C) [µM]	IC50 (NRAS G12C) [µM]	IC50 (NCI-H358 (K-Ras G12C); [1]) [µM]	Compound	IC50 (NCI-H358 (K-Ras G12C); read-out: H358 Cell Viability assay data (K-Ras G12C, IC50, uM), 5-day treatment) [µM]
0.01 to 0.1	0.01 to 0.1	0.1 to 1	0.1 to 1	0.01 to 0.1	0.1 to 1	0.1 to 1	0.01 to 0.1	< 0.01	CCn1c(-c2cccnc2[C@H](C)OC)c2c3cc(ccc31)-c1csc(n1)C[C@H](NC(=O)[C@H](C(C)C)N(C)C(=O)N1CCN3C(=O)CN(C)C[C@H]3C1)C(=O)N1CCC[C@H](N1)C(=O)OCC(C)(C)C2 [Compound A537]	–
0.01 to 0.1	0.1 to 1	0.1 to 1	0.1 to 1	0.1 to 1	0.1 to 1	0.1 to 1	0.01 to 0.1	0.01 to 0.1	CCn1c(-c2cccnc2[C@H](C)OC)c2c3cc(ccc31)-c1csc(n1)C[C@H](NC(=O)[C@H](C(C)C)N(C)C(=O)N1CCCC13CN(C)C3)C(=O)N1CCC[C@H](N1)C(=O)OCC(C)(C)C2 [Compound A545]	–
0.01 to 0.1	0.01 to 0.1	0.1 to 1	0.01 to 0.1	0.01 to 0.1	0.1 to 1	0.1 to 1	0.01 to 0.1	0.01 to 0.1	CCn1c(-c2cccnc2[C@H](C)OC)c2c3cc(ccc31)-c1csc(n1)C[C@H](NC(=O)[C@H](C(C)C)N(C)C(=O)N1CC[C@@H]1CN)C(=O)N1CCC[C@H](N1)C(=O)OCC(C)(C)C2 [Compound A558]	–
0.01 to 0.1	0.01 to 0.1	0.01 to 0.1	0.01 to 0.1	0.01 to 0.1	0.01 to 0.1	0.01 to 0.1	0.01 to 0.1	< 0.01	CCn1c(-c2cccnc2[C@H](C)OC)c2c3cc(ccc31)-c1cc(O)cc(c1)C[C@H](NC(=O)[C@H](C(C)C)N(C)C(=O)[C@@H]1OCC[C@H]1c1ccccc1)C(=O)N1CCC[C@H](N1)C(=O)OCC(C)(C)C2 [Compound A584]	–
0.01 to 0.1	0.1 to 1	0.1 to 1	0.1 to 1	0.01 to 0.1	0.1 to 1	0.1 to 1	0.01 to 0.1	< 0.01	CCn1c(-c2cccnc2[C@H](C)OC)c2c3cc(ccc31)-c1csc(n1)C[C@H](NC(=O)[C@H](C(C)C)N(C)C(=O)N1CCN(C(=O)[C@@H]3CCCN3C)CC1)C(=O)N1CCC[C@H](N1)C(=O)OCC(C)(C)C2 [Compound A596]	–

— US20250195521A1 (Revolution Medicines, Inc., priority 2020, published 2025)
